The values below come from publication PMC10978636, “Hydroxy(phenyl)pyruvic acid reductase in Actaea racemosa L.: a putative enzyme in cimicifugic and fukinolic acid biosynthesis” (Planta, 2024).

In this assay the test system is ArH(P)PR. The experiment in a line: photometric NAD(P)H oxidation at […] nm, Michaelis-Menten fit. It is filed as biochemical, Actaea racemosa. The conditions noted are these: 0.1 M KPi pH 7.5.
[1] abbreviates: co-substrate concentration not in main text (Suppl. Table S3).

What is called Km is the substrate concentration at which the rate is half of its maximum. In the case of `O=C(O)C(=O)Cc1ccc(O)c(O)c1` [DHPP, 3,4-dihydroxyphenylpyruvic acid], the Km (1 mM NADPH) is 24000 ± 4650 µM.

As for `NC(=O)C1=CN([C@@H]2O[C@H](COP(=O)(O)OP(=O)(O)OC[C@H]3O[C@@H](n4cnc5c(N)ncnc54)[C@H](O)[C@@H]3O)[C@@H](O)[C@H]2O)C=CC1` [NADH], the Km under setting [1] turned out to be 660 ± 90 µM.

For the molecule `NC(=O)C1=CN([C@@H]2O[C@H](COP(=O)(O)OP(=O)(O)OC[C@H]3O[C@@H](n4cnc5c(N)ncnc54)[C@H](OP(=O)(O)O)[C@@H]3O)[C@@H](O)[C@H]2O)C=CC1` [NADPH], the Km under setting [1] came out at 23 ± 4 µM.

Take `CC(=O)C(=O)O` [P, pyruvic acid]: the Km (1 mM NADPH) was determined as 1890 ± 510 µM.

Turning to `O=C(O)C(=O)Cc1ccccc1` [PP, phenylpyruvic acid], the Michaelis constant (Km) (1 mM NADPH) came out at 5320 ± 2770 µM.

On to `O=C(O)C(=O)Cc1ccc(O)cc1` [pHPP, 4-hydroxyphenylpyruvic acid], for which, under “1 mM NADPH”, the Km was 1130 ± 120 µM.

For the molecule `O=C(O)C(=O)CO` [β-HP, β-hydroxypyruvic acid], the Km (1 mM NADPH, error is SEM, substrate inhibition above 1 mM) was 260 ± 120 µM.
